# Source: patent US20040023295A1, “Methods and systems for analyzing complex biological systems” (priority 2001, published 2004)
# Tested on: Saccharomyces cerevisiae wild type strain BY4743
# Experiment: Yeast azole drug experiment AF1: metabolite analysis (GC-MS, LC-MS)
# Type: cell-based
smiles,measurement,setting,value
C[C@@H]1[C@H](O)[C@@H](C)/C=C/C=C/C=C/C=C/C=C/C=C/C=C/[C@H](O[C@@H]2O[C@H](C)[C@@H](O)[C@H](N)[C@@H]2O)C[C@@H]2O[C@](O)(C[C@@H](O)C[C@@H](O)[C@H](O)CC[C@@H](O)C[C@@H](O)CC(=O)O[C@H]1C)C[C@H](O)[C@H]2C(=O)O [Amphoteracin B],Fold Change urocanic acid,nLC,0
same,Fold Change xanthosine-DiH2O,nLC,0
same,Fold Change zeatin,nLC,0
same,Fold Change urocanic acid,pLC,0
same,Fold Change xanthosine (diH2O),pLC,0
same,Fold Change zeatin,pLC,0
same,Fold Change of metabolite disaccaride2,"platform GC, p-Value 0.000388379",−0.9977
same,Fold Change of metabolite disaccaride3,"platform GC, p-Value 0.000700744",−0.9977
same,Fold Change of metabolite tms glutamine3,"platform GC, p-Value 0.003279434",−0.8935
same,Fold Change of metabolite phenylalanine,"platform GC, p-Value 0.010760299",−0.9797
same,Fold Change of metabolite ornithine3,"platform GC, p-Value 0.011300115",−0.9853
same,Fold Change of metabolite TMS mevalonic acid lactone,"platform GC, p-Value 0.012983194",−0.9767
same,Fold Change of metabolite malic acid,"platform GC, p-Value 0.015444108",−0.963
same,Fold Change of metabolite leucine,"platform GC, p-Value 0.015876175",−0.9443
same,Fold Change of metabolite glutamine,"platform GC, p-Value 0.019324613",−0.9116
same,Fold Change of metabolite sugar?,"platform GC, p-Value 0.019518223",−0.933
same,Fold Change of metabolite isoleucine,"platform GC, p-Value 0.021030517",−0.9533
same,Fold Change of metabolite aspartic acid,"platform GC, p-Value 0.024172801",−0.9743
same,Fold Change of metabolite tms tyrosine3,"platform GC, p-Value 0.029953667",−0.9473
same,Fold Change of metabolite tms lysine4,"platform GC, p-Value 0.032217789",−0.9783
same,Fold Change of metabolite glycanopyrose,"platform GC, p-Value 0.041202857",−0.958
same,Fold Change of metabolite alanine,"platform GC, p-Value 0.054639399",−0.7773
same,Fold Change of metabolite threonine3,"platform GC, p-Value 0.063199416",−0.8933
same,Fold Change of metabolite threonine2,"platform GC, p-Value 0.073159868",−0.8553
same,Fold Change of metabolite glycerol,"platform GC, p-Value 0.089234962",−0.815
same,Fold Change of metabolite ergosterol,"platform GC, p-Value 0.114118055",2.303
same,Fold Change of metabolite fucosterol,"platform GC, p-Value 0.186711806",−0.6553
same,Fold Change of metabolite iso citric acid,"platform GC, p-Value 0.233348939",−0.6183
same,Fold Change of metabolite squalene,"platform GC, p-Value 0.254158772",−0.5745
same,Fold Change of metabolite oleic acid,"platform GC, p-Value 0.325422554",−0.4593
same,Fold Change of metabolite glycine,"platform GC, p-Value 0.431923912",0.8807
same,Fold Change of metabolite lysine,"platform GC, p-Value 0.488896519",−0.3925
same,Fold Change of metabolite palmiteliadic acid,"platform GC, p-Value 0.503020409",0.515
same,Fold Change of metabolite tms tyrosine2,"platform GC, p-Value 0.601581614",−0.3593
same,Fold Change of metabolite octadecanoic acid,"platform GC, p-Value 0.660192025",0.21
same,Fold Change of metabolite mevalonic acid lactone,"platform GC, p-Value 0.690626296",−0.1276
same,Fold Change of metabolite pyrimidine,"platform GC, p-Value 0.744108261",−0.185
same,Fold Change of metabolite tetradecanoic acid,"platform GC, p-Value 0.793963653",0.07967
same,Fold Change of metabolite hexadecanoic acid,"platform GC, p-Value 0.921125845",−0.2427
same,Fold Change of metabolite phosphate,"platform GC, p-Value 0.983733869",−0.007333
same,Fold Change of metabolite campesterol,"platform GC, p-Value 1",0
same,Fold Change of metabolite desmosterol,"platform GC, p-Value 1",0
same,Fold Change of metabolite ornithine2,"platform GC, p-Value 1.48992E−05",−1
same,Fold Change of metabolite asparagine,"platform GC, p-Value 6.41E−06",−1
same,Fold Change of metabolite disaccaride1,"platform GC, p-Value 7.54E−06",−1
same,Fold Change of metabolite lanosterol,"platform GC, p-Value 7.71E−06",−1
same,Fold Change of metabolite kinetin,"platform nLC (first kinetin line), p-Value 1",0
same,Fold Change of metabolite kinetin,"platform nLC (second kinetin line), p-Value 1",0
same,Fold Change of metabolite cytidine,"platform nLC, p-Value 0.000680198",−0.9986
same,Fold Change of metabolite isocitric/citric/qu,"platform nLC, p-Value 0.027544382",2.549
same,Fold Change of metabolite lactic acid,"platform nLC, p-Value 0.077524891",−0.02583
same,Fold Change of metabolite allantoin,"platform nLC, p-Value 0.149169352",3.97
same,Fold Change of metabolite orotic acid,"platform nLC, p-Value 0.186179266",8380
same,Fold Change of metabolite succinic,"platform nLC, p-Value 0.193450596",0.8663
same,Fold Change of metabolite 3-indolylacetonitri,"platform nLC, p-Value 0.197015297",−0.9998
same,Fold Change of metabolite citrulline,"platform nLC, p-Value 0.217809679",1659
same,Fold Change of metabolite 2-ketobutyric acid,"platform nLC, p-Value 0.225631474",−0.9992
same,Fold Change of metabolite sucrose,"platform nLC, p-Value 0.225682636",0.4493
same,Fold Change of metabolite fumaric/3m2oxobutan,"platform nLC, p-Value 0.238894937",0.4423
same,Fold Change of metabolite glucosamine6PO4,"platform nLC, p-Value 0.273438701",−0.9951
same,Fold Change of metabolite gallic acid,"platform nLC, p-Value 0.29960644",0.1622
same,Fold Change of metabolite arginine,"platform nLC, p-Value 0.315413423",−0.4885
same,Fold Change of metabolite biotin,"platform nLC, p-Value 0.363209057",1.077
same,Fold Change of metabolite nopaline,"platform nLC, p-Value 0.369522244",0.3342
same,Fold Change of metabolite hypoxanthine,"platform nLC, p-Value 0.372039959",0.1655
same,Fold Change of metabolite tryptophan,"platform nLC, p-Value 0.380816515",1.142
same,Fold Change of metabolite DLaminoadipic acid,"platform nLC, p-Value 0.40985594",1.411
same,Fold Change of metabolite inostol/glucos/sorb,"platform nLC, p-Value 0.41837757",−0.5905
same,Fold Change of metabolite guanosine,"platform nLC, p-Value 0.425021511",1.131
same,Fold Change of metabolite caffeic acid,"platform nLC, p-Value 0.427037943",−0.5882
same,Fold Change of metabolite ornithine,"platform nLC, p-Value 0.473753211",2.534
same,Fold Change of metabolite malic acid,"platform nLC, p-Value 0.497517178",0.6212
same,Fold Change of metabolite proline,"platform nLC, p-Value 0.518220081",0.4603
same,Fold Change of metabolite 2-ketoglutaric,"platform nLC, p-Value 0.622408732",8.791
same,Fold Change of metabolite alanine,"platform nLC, p-Value 0.62524207",0.1599
same,Fold Change of metabolite sorbitol/mannitol,"platform nLC, p-Value 0.68492695",0.2162
same,Fold Change of metabolite aspartic,"platform nLC, p-Value 0.703732114",0.2407
same,Fold Change of metabolite pyridoxine,"platform nLC, p-Value 0.708651225",−0.1294
same,Fold Change of metabolite selenoDL-methionine,"platform nLC, p-Value 0.711447529",0.8515
same,Fold Change of metabolite glutamic/acetylseri,"platform nLC, p-Value 0.733962176",0.1414
same,Fold Change of metabolite asparagine,"platform nLC, p-Value 0.758489047",0.1511
same,Fold Change of metabolite phenylalanine,"platform nLC, p-Value 0.76165051",−0.1906
same,Fold Change of metabolite leucine/isoleucine/,"platform nLC, p-Value 0.763305915",0.1319
same,Fold Change of metabolite serine,"platform nLC, p-Value 0.766811518",0.1091
same,Fold Change of metabolite threonine/homoserin,"platform nLC, p-Value 0.769444989",0.1267
same,Fold Change of metabolite allantoic acid,"platform nLC, p-Value 0.777964345",−0.1456
same,Fold Change of metabolite tetradecanoic acid,"platform nLC, p-Value 0.782765706",−0.07723
same,Fold Change of metabolite 4aminobutyrate/dimg,"platform nLC, p-Value 0.820379809",−0.1983
same,Fold Change of metabolite decanoic acid,"platform nLC, p-Value 0.824169685",−0.08716
same,Fold Change of metabolite glutamine/lysine,"platform nLC, p-Value 0.835677767",0.07919
same,Fold Change of metabolite NacetylL-glutamate,"platform nLC, p-Value 0.840704909",−0.1078
same,Fold Change of metabolite menthol*,"platform nLC, p-Value 0.852876357",−0.07013
same,Fold Change of metabolite pipecolic acid,"platform nLC, p-Value 0.871015411",0.08112
same,Fold Change of metabolite sugar-phosphate,"platform nLC, p-Value 0.878141701",−0.1067
same,Fold Change of metabolite oleic acid,"platform nLC, p-Value 0.880270386",0.689
same,Fold Change of metabolite aconitic acid,"platform nLC, p-Value 0.891314692",0.5426
same,Fold Change of metabolite palmitic acid,"platform nLC, p-Value 0.90280612",0.3979
same,Fold Change of metabolite nicotinic acid,"platform nLC, p-Value 0.972130606",0.3131
same,Fold Change of metabolite lauric acid,"platform nLC, p-Value 0.972245476",0.1225
same,Fold Change of metabolite 4-methylcatechol,"platform nLC, p-Value 1",0
